Source: patent US20150023885A1, “Antiperspirant Spray Devices and Compositions” (The Procter & Gamble Company, priority 2013, published 2015)

Description: (§1) Solubility may be determined by measuring the amount of light transmittance (a light transmittance value) through a simple mixture of the non-volatile silicone fluid and liquid activation enhancer at the same weight/weight concentrations as in a final antiperspirant composition.
as §1, with “Solubility of a liquid activation enhancer in a non-volatile silicone” for “Solubility”, “(light” for “(a light”
The Spectronic Genesys 10 Vis utilizes a tungsten-halogen light source and has a spectral bandwidth of 5 nm, a wavelength range of 325 to 1100 nm, accuracy of ±1 nm and a repeatability of ±0.5 nm. Readouts include absorbance, transmittance and concentration. The spectrophotometer is set to 640 nm wavelength and the percent transmittance mode/readout. Polystyrene spectrometer cuvettes having a 1 cm optical light path and transmittance between ˜340 nm and ˜900 nm are used. One suitable example of a spectrometer cuvette is available from VWR International LLC under Catalog #97000-584 having a 2.5 to 4.5 ml capacity. The spectrophotometer is calibrated according to the manufacturer's instructions using a reference cuvette and composition comprised of just the non-volatile silicone fluid of interest. For example, if the test composition comprises 50 centistoke dimethicone and 15% w/w of isopropyl myristate, then the spectrometer is calibrated using a cuvette containing just 50 centistoke dimethicone. Sample cuvettes are filled sufficiently with a test composition of a non-volatile silicone fluid and liquid activation enhancer so that the light path of the spectrophotometer passes through the test composition in the cuvette. The sample cuvettes are shaken well just prior to taking a light transmittance reading.

Molecule	light transmittance value	solubility in 50 centistoke dimethicone
mineral oil	about 100%	
PPG-14 butyl ether		insoluble in 50 centistoke dimethicone across the 2% to 30% w/w concentration range
CCCCCCCCCCCCCCCCCC(=O)OCCCC [butyl stearate]	about 100%	
CCCCCCCCCCCCCC(C)C [isohexadecane]	about 100%	soluble in 50 centistoke dimethicone across the 2% to 30% w/w concentration range
